pEC50: −log10 of the molar value.
What was measured:
INSR = molecular target: T1, INSR (Homo sapiens, UniProt P06213); experiment: KinomeScan; type: binding; details: 1uM
T1 construct: purchased DiscoveRx KINOMEscan

TESK1 = molecular target: T2, TESK1 (Homo sapiens, UniProt Q15569); experiment: KinomeScan; type: binding; details: 1uM
T2 construct: purchased DiscoveRx KINOMEscan

CSNK1G1 = molecular target: T3, CSNK1G1 (Homo sapiens, UniProt Q9HCP0); experiment: KinomeScan; type: binding; details: 1uM
T3 construct: purchased DiscoveRx KINOMEscan

NEK7 = molecular target: T4, NEK7 (Homo sapiens, UniProt Q8TDX7); experiment: KinomeScan; type: binding; details: 1uM
T4 construct: purchased DiscoveRx KINOMEscan

ZAK = molecular target: T5, ZAK (Homo sapiens, UniProt Q9NYL2); experiment: KinomeScan; type: binding; details: 1uM
T5 construct: purchased DiscoveRx KINOMEscan

CDK5 = molecular target: T6, CDK5 (Homo sapiens, UniProt Q00535); experiment: KinomeScan; type: binding; details: 1uM
T6 construct: purchased DiscoveRx KINOMEscan

HIPK4 = molecular target: T7, HIPK4 (Homo sapiens, UniProt Q8NE63); experiment: KinomeScan; type: binding; details: 1uM
T7 construct: purchased DiscoveRx KINOMEscan

PIM2 = molecular target: T8, PIM2 (Homo sapiens, UniProt Q9P1W9); experiment: KinomeScan; type: binding; details: 1uM
T8 construct: purchased DiscoveRx KINOMEscan

PAK3 = molecular target: T9, PAK3 (Homo sapiens, UniProt O75914); experiment: KinomeScan; type: binding; details: 1uM
T9 construct: purchased DiscoveRx KINOMEscan

MST4 = molecular target: T10, MST4 (Homo sapiens, UniProt Q9P289); experiment: KinomeScan; type: binding; details: 1uM
T10 construct: purchased DiscoveRx KINOMEscan

MINK = molecular target: T11, MINK (Homo sapiens, UniProt Q8N4C8); experiment: KinomeScan; type: binding; details: 1uM
T11 construct: purchased DiscoveRx KINOMEscan

[1] = molecular target: T12, RPS6KA5(Kin.Dom.1-N-terminal) (Homo sapiens, UniProt O75582); experiment: KinomeScan; type: binding; details: 1uM
T12 construct: RPS6KA5(Kin.Dom.1-N-terminal); purchased DiscoveRx KINOMEscan

KIT(A829P) = molecular target: T13, KIT(A829P) (Homo sapiens, UniProt P10721, A829P); experiment: KinomeScan; type: binding; details: 1uM
T13 construct: purchased DiscoveRx KINOMEscan

CAMK2A = molecular target: T14, CAMK2A (Homo sapiens, UniProt Q9UQM7); experiment: KinomeScan; type: binding; details: 1uM
T14 construct: purchased DiscoveRx KINOMEscan
T14 sequence (Q9UQM7 whole entry): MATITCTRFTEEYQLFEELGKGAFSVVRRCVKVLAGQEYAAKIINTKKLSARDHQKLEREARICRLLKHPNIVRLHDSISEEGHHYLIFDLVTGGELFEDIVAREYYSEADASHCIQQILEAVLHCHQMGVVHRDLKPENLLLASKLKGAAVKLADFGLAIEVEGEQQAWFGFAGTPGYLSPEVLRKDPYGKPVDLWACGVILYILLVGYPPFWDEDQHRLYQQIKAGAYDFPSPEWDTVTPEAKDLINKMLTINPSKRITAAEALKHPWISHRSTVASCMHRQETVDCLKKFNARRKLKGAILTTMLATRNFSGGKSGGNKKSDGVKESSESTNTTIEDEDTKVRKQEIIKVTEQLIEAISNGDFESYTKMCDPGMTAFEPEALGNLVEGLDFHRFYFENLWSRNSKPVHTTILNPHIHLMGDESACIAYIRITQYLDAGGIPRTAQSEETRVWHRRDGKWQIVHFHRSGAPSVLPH

PIK3CB = molecular target: T15, PIK3CB (Homo sapiens, UniProt P42338); experiment: KinomeScan; type: binding; details: 1uM
T15 construct: purchased DiscoveRx KINOMEscan

[2] = molecular target: T16, ABL1(T315I)-phosphorylated (Homo sapiens, UniProt P00519, T315I); experiment: KinomeScan; type: binding; details: 1uM
T16 construct: purchased DiscoveRx KINOMEscan

PFTK1 = molecular target: T17, PFTK1 (Homo sapiens, UniProt O94921); experiment: KinomeScan; type: binding; details: 1uM
T17 construct: purchased DiscoveRx KINOMEscan

PAK1 = molecular target: T18, PAK1 (Homo sapiens, UniProt Q13153); experiment: KinomeScan; type: binding; details: 1uM
T18 construct: purchased DiscoveRx KINOMEscan

EGFR(L858R,T790M) = molecular target: T19, EGFR(L858R,T790M) (Homo sapiens, UniProt P00533, L858R/T790M); experiment: KinomeScan; type: binding; details: 1uM
T19 construct: purchased DiscoveRx KINOMEscan

LOK = molecular target: T20, LOK (Homo sapiens, UniProt O94804); experiment: KinomeScan; type: binding; details: 1uM
T20 construct: purchased DiscoveRx KINOMEscan

PRKCE = molecular target: T21, PRKCE (Homo sapiens, UniProt Q02156); experiment: KinomeScan; type: binding; details: 1uM
T21 construct: purchased DiscoveRx KINOMEscan

STK36 = molecular target: T22, STK36 (Homo sapiens, UniProt Q9NRP7); experiment: KinomeScan; type: binding; details: 1uM
T22 construct: purchased DiscoveRx KINOMEscan

TTK = molecular target: T23, TTK (Homo sapiens, UniProt P33981); experiment: KinomeScan; type: binding; details: 1uM
T23 construct: purchased DiscoveRx KINOMEscan

EGFR(L861Q) = molecular target: T24, EGFR(L861Q) (Homo sapiens, UniProt P00533, L861Q); experiment: KinomeScan; type: binding; details: 1uM
T24 construct: purchased DiscoveRx KINOMEscan
T24 sequence (P00533 25-1210 L861Q): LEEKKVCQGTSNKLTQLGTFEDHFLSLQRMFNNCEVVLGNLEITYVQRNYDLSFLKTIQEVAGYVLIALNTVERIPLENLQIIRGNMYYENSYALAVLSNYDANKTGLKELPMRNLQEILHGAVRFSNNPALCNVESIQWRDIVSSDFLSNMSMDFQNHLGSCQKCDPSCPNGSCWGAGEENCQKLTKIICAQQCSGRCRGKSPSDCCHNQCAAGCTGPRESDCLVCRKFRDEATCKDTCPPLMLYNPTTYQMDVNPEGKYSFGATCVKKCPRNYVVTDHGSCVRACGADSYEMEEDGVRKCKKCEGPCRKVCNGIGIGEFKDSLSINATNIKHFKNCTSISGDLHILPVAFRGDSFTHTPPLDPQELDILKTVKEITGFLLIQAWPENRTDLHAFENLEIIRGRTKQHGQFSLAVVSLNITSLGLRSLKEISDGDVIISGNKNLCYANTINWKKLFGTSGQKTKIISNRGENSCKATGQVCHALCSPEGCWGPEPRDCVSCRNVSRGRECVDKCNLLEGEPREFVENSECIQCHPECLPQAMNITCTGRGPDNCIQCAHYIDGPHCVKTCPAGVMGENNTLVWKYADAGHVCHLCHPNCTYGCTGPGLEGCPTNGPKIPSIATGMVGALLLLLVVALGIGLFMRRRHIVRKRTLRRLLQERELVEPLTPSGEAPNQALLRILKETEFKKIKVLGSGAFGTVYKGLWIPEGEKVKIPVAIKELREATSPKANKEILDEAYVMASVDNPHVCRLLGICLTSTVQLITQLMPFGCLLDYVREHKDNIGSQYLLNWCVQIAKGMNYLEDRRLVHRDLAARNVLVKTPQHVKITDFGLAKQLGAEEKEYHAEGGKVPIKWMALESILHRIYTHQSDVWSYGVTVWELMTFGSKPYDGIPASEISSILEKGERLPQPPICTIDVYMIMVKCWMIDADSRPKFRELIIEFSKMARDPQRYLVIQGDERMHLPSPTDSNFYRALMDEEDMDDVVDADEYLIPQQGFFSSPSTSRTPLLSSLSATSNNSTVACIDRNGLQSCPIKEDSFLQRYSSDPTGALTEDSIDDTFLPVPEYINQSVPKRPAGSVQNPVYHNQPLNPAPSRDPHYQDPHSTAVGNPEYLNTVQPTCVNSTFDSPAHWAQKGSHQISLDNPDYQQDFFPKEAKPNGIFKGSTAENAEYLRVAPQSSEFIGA

PFPK5(P.falciparum) = molecular target: T25, PFPK5(P.falciparum) (Plasmodium falciparum, UniProt P61075); experiment: KinomeScan; type: binding; details: 1uM
T25 construct: purchased DiscoveRx KINOMEscan

PDGFRA = molecular target: T26, PDGFRA (Homo sapiens, UniProt P16234); experiment: KinomeScan; type: binding; details: 1uM
T26 construct: purchased DiscoveRx KINOMEscan

CDK4-cyclinD3 = molecular target: T27, CDK4-cyclinD3 (Homo sapiens, UniProt P11802); experiment: KinomeScan; type: binding; details: 1uM
T27 construct: purchased DiscoveRx KINOMEscan

SGK2 = molecular target: T28, SGK2 (Homo sapiens, UniProt Q9HBY8); experiment: KinomeScan; type: binding; details: 1uM
T28 construct: purchased DiscoveRx KINOMEscan
T28 sequence (Q9HBY8 whole entry): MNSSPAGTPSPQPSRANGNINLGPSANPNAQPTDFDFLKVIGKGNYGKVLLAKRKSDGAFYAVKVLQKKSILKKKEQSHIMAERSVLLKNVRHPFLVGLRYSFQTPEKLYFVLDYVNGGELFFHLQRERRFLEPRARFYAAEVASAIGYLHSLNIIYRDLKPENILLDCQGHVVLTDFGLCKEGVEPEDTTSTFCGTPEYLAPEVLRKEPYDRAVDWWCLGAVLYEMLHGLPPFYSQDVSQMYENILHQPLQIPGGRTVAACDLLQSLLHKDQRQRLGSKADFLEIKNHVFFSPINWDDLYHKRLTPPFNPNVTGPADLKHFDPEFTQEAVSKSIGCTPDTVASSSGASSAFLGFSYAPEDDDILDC

RET = molecular target: T29, RET (Homo sapiens, UniProt P07949); experiment: KinomeScan; type: binding; details: 1uM
T29 construct: purchased DiscoveRx KINOMEscan
T29 sequence (P07949 29-1114): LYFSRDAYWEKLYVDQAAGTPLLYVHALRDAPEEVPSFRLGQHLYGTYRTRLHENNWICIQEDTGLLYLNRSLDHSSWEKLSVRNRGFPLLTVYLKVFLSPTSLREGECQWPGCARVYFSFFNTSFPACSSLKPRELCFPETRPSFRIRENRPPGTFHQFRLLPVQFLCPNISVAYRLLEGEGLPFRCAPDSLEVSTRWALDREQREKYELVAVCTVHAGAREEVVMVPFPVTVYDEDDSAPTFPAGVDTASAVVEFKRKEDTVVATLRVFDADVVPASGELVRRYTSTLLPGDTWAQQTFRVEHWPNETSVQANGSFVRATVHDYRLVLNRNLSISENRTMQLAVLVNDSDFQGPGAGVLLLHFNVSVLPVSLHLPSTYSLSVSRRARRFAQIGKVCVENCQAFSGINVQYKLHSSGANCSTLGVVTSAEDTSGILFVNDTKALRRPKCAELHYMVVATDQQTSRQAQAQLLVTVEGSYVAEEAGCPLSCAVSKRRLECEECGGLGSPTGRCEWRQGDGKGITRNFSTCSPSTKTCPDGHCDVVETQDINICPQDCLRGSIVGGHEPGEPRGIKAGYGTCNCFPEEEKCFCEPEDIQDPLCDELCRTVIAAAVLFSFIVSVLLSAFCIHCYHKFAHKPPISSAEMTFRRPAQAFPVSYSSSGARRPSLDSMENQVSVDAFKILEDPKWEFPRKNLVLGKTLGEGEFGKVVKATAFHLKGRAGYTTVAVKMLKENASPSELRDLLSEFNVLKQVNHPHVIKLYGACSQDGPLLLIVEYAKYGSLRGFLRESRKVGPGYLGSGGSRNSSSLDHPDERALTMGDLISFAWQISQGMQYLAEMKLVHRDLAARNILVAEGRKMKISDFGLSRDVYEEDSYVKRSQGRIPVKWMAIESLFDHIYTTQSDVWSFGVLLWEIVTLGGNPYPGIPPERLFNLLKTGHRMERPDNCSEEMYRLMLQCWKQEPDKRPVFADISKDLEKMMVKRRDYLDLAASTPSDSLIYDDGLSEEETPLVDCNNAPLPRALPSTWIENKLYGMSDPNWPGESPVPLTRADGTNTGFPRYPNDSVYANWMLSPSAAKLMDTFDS

CDKL5 = molecular target: T30, CDKL5 (Homo sapiens, UniProt O76039); experiment: KinomeScan; type: binding; details: 1uM
T30 construct: purchased DiscoveRx KINOMEscan

ULK2 = molecular target: T31, ULK2 (Homo sapiens, UniProt Q8IYT8); experiment: KinomeScan; type: binding; details: 1uM
T31 construct: purchased DiscoveRx KINOMEscan

FRK = molecular target: T32, FRK (Homo sapiens, UniProt P42685); experiment: KinomeScan; type: binding; details: 1uM
T32 construct: purchased DiscoveRx KINOMEscan

BMPR2 = molecular target: T33, BMPR2 (Homo sapiens, UniProt Q13873); experiment: KinomeScan; type: binding; details: 1uM
T33 construct: purchased DiscoveRx KINOMEscan

RIPK2 = molecular target: T34, RIPK2 (Homo sapiens, UniProt O43353); experiment: KinomeScan; type: binding; details: 1uM
T34 construct: purchased DiscoveRx KINOMEscan

[3] = molecular target: T35, EGFR(L747-S752del, P753S) (Homo sapiens, UniProt P00533, DEL747-752/P753S); experiment: KinomeScan; type: binding; details: 1uM
T35 construct: purchased DiscoveRx KINOMEscan

MEK3 = molecular target: T36, MEK3 (Homo sapiens, UniProt P46734); experiment: KinomeScan; type: binding; details: 1uM
T36 construct: purchased DiscoveRx KINOMEscan

PFTAIRE2 = molecular target: T37, PFTAIRE2 (Homo sapiens, UniProt Q96Q40); experiment: KinomeScan; type: binding; details: 1uM
T37 construct: purchased DiscoveRx KINOMEscan

AKT3 = molecular target: T38, AKT3 (Homo sapiens, UniProt Q9Y243); experiment: KinomeScan; type: binding; details: 1uM
T38 construct: purchased DiscoveRx KINOMEscan

ACVR2B = molecular target: T39, ACVR2B (Homo sapiens, UniProt Q13705); experiment: KinomeScan; type: binding; details: 1uM
T39 construct: purchased DiscoveRx KINOMEscan
T39 sequence (Q13705 19-512): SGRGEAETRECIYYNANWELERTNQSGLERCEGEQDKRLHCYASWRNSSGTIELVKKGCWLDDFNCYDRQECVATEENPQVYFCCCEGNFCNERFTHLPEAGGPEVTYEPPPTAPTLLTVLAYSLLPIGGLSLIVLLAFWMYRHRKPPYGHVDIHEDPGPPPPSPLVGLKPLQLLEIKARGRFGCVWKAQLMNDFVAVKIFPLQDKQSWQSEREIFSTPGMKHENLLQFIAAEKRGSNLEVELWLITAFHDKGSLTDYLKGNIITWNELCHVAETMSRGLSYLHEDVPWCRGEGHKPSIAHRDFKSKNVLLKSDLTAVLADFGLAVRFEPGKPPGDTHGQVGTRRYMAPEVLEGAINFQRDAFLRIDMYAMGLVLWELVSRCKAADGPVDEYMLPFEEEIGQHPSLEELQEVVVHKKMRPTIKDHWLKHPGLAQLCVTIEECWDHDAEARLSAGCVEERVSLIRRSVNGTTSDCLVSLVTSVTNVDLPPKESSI

PI3Kβ = molecular target: T40, PI3Kβ (Mus musculus, UniProt Q8BTI9); experiment: PI3Ks isoform in cell EC50 assay (AKT phosphorylation, Western Blotting); type: cell-based; details: NIH-3T3, 5μM LPA, read-out: cellular EC50 PI3K Beta
T40 construct: endogenous in cells; host or cells: NIH-3T3

MEK1 = molecular target: T41, MEK1 (Homo sapiens, UniProt Q02750); experiment: KinomeScan; type: binding; details: 1uM
T41 construct: purchased DiscoveRx KINOMEscan

BTK = molecular target: T42, BTK (Homo sapiens, UniProt Q06187); experiment: KinomeScan; type: binding; details: 1uM
T42 construct: purchased DiscoveRx KINOMEscan

T1 sequence (P06213 28-1382): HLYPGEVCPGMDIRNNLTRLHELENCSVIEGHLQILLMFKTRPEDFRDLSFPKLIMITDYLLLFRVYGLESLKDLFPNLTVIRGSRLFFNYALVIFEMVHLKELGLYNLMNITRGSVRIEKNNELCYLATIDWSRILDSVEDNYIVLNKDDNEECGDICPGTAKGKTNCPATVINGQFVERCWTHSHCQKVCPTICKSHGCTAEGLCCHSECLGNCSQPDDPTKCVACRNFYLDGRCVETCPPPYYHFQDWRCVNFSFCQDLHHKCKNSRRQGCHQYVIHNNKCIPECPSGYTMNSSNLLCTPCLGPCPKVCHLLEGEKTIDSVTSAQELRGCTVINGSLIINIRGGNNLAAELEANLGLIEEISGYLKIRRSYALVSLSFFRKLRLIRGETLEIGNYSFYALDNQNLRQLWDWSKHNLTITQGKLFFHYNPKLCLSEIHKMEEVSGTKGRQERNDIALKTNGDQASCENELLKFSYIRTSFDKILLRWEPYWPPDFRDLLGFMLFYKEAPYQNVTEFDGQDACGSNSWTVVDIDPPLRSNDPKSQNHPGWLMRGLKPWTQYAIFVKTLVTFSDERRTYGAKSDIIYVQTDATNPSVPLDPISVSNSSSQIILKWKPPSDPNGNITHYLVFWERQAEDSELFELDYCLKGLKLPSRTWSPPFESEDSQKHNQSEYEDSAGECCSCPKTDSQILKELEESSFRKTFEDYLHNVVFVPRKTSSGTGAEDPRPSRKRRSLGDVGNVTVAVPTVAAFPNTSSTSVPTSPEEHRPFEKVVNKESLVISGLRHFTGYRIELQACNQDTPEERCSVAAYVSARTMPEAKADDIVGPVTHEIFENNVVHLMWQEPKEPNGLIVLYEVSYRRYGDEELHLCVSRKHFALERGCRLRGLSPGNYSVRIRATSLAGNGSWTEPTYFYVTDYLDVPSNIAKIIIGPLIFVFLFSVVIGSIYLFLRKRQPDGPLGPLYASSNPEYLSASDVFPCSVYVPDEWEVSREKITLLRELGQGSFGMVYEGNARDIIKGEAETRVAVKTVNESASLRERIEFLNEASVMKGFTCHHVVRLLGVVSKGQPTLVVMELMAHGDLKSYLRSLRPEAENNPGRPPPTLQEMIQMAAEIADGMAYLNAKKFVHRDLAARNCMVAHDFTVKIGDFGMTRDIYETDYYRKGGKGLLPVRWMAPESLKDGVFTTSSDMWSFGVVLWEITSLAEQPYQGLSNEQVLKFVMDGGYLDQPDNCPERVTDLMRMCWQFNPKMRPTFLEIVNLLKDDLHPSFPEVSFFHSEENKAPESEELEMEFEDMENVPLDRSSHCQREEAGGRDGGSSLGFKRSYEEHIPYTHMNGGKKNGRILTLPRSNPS

## Cc1nc(NC(=O)[C@@H](N)C(C)C)sc1-c1cnc(Cl)c(NS(=O)(=O)c2ccccc2)c1 [PI3KD-IN-015]
INSR
  KinomeScan INSR: 74
TESK1
  KinomeScan TESK1: 100
CSNK1G1
  KinomeScan CSNK1G1: 100
NEK7
  KinomeScan NEK7: 100
ZAK
  KinomeScan ZAK: 100
CDK5
  KinomeScan CDK5: 100
HIPK4
  KinomeScan HIPK4: 83
PIM2
  KinomeScan PIM2: 72
PAK3
  KinomeScan PAK3: 92
MST4
  KinomeScan MST4: 86
MINK
  KinomeScan MINK: 100
[1]
  KinomeScan RPS6KA5(Kin.Dom.1-N-terminal): 100
KIT(A829P)
  KinomeScan KIT(A829P): 96
CAMK2A
  KinomeScan CAMK2A: 94
PIK3CB
  KinomeScan PIK3CB: 0
[2]
  KinomeScan ABL1(T315I)-phosphorylated: 98
PFTK1
  KinomeScan PFTK1: 100
PAK1
  KinomeScan PAK1: 100
EGFR(L858R,T790M)
  KinomeScan EGFR(L858R,T790M): 100
LOK
  KinomeScan LOK: 99
PRKCE
  KinomeScan PRKCE: 100
STK36
  KinomeScan STK36: 100
TTK
  KinomeScan TTK: 96
EGFR(L861Q)
  KinomeScan EGFR(L861Q): 95
PFPK5(P.falciparum)
  KinomeScan PFPK5(P.falciparum): 100
PDGFRA
  KinomeScan PDGFRA: 94
CDK4-cyclinD3
  KinomeScan CDK4-cyclinD3: 100
SGK2
  KinomeScan SGK2: 81
RET
  KinomeScan RET: 100
CDKL5
  KinomeScan CDKL5: 87
ULK2
  KinomeScan ULK2: 79
FRK
  KinomeScan FRK: 97
BMPR2
  KinomeScan BMPR2: 96
RIPK2
  KinomeScan RIPK2: 98
[3]
  KinomeScan EGFR(L747-S752del, P753S): 100
MEK3
  KinomeScan MEK3: 93
PFTAIRE2
  KinomeScan PFTAIRE2: 100
AKT3
  KinomeScan AKT3: 89
ACVR2B
  KinomeScan ACVR2B: 100
PI3Kβ
  pEC50: < 5.52
MEK1
  KinomeScan MEK1: 100
BTK
  KinomeScan BTK: 81
